Laboratory results reported in the supplement of paper PMC10307832.

Legend:
Test in all cases: relative viability (nuclei count vs DMSO), 5 days (fraction); higher = more cells survive
Neratinib + Linsitinib = compound: CCOc1cc2ncc(C#N)c(Nc3ccc(OCc4ccccn4)c(Cl)c3)c2cc1NC(=O)/C=C/CN(C)C [Neratinib] + C[C@]1(O)C[C@@H](c2nc(-c3ccc4ccc(-c5ccccc5)nc4c3)c3c(N)nccn32)C1 [Linsitinib] (partner 1 µM)
Procedure, shortened: (§1)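 Relative viability was taken as the ratio of nuclei in treated wells to nuclei in vehicle wells. Lung cancer cell lines in 1536-well plates received compounds by pin tool one day after seeding, either one drug alone or a fixed anchor-drug dose plus five library-drug doses (not always all listed) in √10 steps. Nuclei were counted on 4× images after 5 days of treatment, and values are medians of duplicate plates.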

Neratinib + Navitoclax = compound: CCOc1cc2ncc(C#N)c(Nc3ccc(OCc4ccccn4)c(Cl)c3)c2cc1NC(=O)/C=C/CN(C)C [Neratinib] + CC1(C)CCC(c2ccc(Cl)cc2)=C(CN2CCN(c3ccc(C(=O)NS(=O)(=O)c4ccc(N[C@H](CCN5CCOCC5)CSc5ccccc5)c(S(=O)(=O)C(F)(F)F)c4)cc3)CC2)C1 [Navitoclax] (partner 0.5 µM)
Procedure, shortened: as §1

Neratinib + Luminespib = compound: CCOc1cc2ncc(C#N)c(Nc3ccc(OCc4ccccn4)c(Cl)c3)c2cc1NC(=O)/C=C/CN(C)C [Neratinib] + CCNC(=O)c1noc(-c2cc(C(C)C)c(O)cc2O)c1-c1ccc(CN2CCOCC2)cc1 [Luminespib] (partner 0.01 µM)
Procedure, shortened: as §1

Neratinib + Foretinib = compound: CCOc1cc2ncc(C#N)c(Nc3ccc(OCc4ccccn4)c(Cl)c3)c2cc1NC(=O)/C=C/CN(C)C [Neratinib] + COc1cc2c(Oc3ccc(NC(=O)C4(C(=O)Nc5ccc(F)cc5)CC4)cc3F)ccnc2cc1OCCCN1CCOCC1 [Foretinib] (partner 0.25 µM)
Procedure, shortened: as §1

| Cell Line | relative viability (Neratinib + Linsitinib; first compound 0.01 µM) | relative viability (Neratinib + Linsitinib; first compound 0.03162 µM) | relative viability (Neratinib + Linsitinib; first compound 0.1 µM) | relative viability (Neratinib + Linsitinib; first compound 0.3162 µM) | relative viability (Neratinib + Linsitinib; first compound 1 µM) | relative viability (Neratinib + Navitoclax; first compound 0.01 µM) | relative viability (Neratinib + Navitoclax; first compound 0.03162 µM) | relative viability (Neratinib + Navitoclax; first compound 0.1 µM) | relative viability (Neratinib + Navitoclax; first compound 0.3162 µM) | relative viability (Neratinib + Navitoclax; first compound 1 µM) | relative viability (Neratinib + Luminespib; first compound 0.01 µM) | relative viability (Neratinib + Luminespib; first compound 0.03162 µM) | relative viability (Neratinib + Luminespib; first compound 0.1 µM) | relative viability (Neratinib + Luminespib; first compound 0.3162 µM) | relative viability (Neratinib + Luminespib; first compound 1 µM) | relative viability (Neratinib + Foretinib; first compound 0.01 µM) | relative viability (Neratinib + Foretinib; first compound 0.03162 µM) | relative viability (Neratinib + Foretinib; first compound 0.1 µM) | relative viability (Neratinib + Foretinib; first compound 0.3162 µM) | relative viability (Neratinib + Foretinib; first compound 1 µM) |
| --- | --- | --- | --- | --- | --- | --- | --- | --- | --- | --- | --- | --- | --- | --- | --- | --- | --- | --- | --- | --- |
| 201T | 1.01 | 1.01 | 0.92 | 0.931 | 0.852 | 1.26 | 1.19 | 1.18 | 1.22 | 1.25 | 1.08 | 1.02 | 0.977 | 1.1 | 0.931 | 1.06 | 1.12 | 0.797 | 0.995 |  |
| A549 | 0.614 | 0.547 | 0.468 | 0.391 | 0.365 | 1.42 | 1.25 |  | 1.12 | 0.528 |  |  |  |  |  | 0.969 | 0.927 |  | 0.832 | 0.54 |
| A-427 | 1.13 | 1.19 | 1.11 | 1.07 | 0.731 | 1.06 | 0.984 | 0.907 | 0.879 | 0.46 | 1.23 | 0.966 | 0.778 | 1.02 | 0.274 | 1.05 |  | 0.972 | 0.935 | 0.255 |
| ABC-1 | 0.781 |  | 0.611 | 0.433 | 0.292 |  |  |  |  |  | 0.337 | 0.659 | 0.405 | 0.315 | 0.278 | 1.16 | 1.12 | 0.689 | 0.954 | 0.466 |
| BEN | 1.03 | 0.961 | 0.814 | 0.744 | 0.544 | 0.0747 | 0.0585 | 0.0644 | 0.0753 | 0.0586 | 0.605 | 0.367 | 0.378 | 0.307 | 0.243 | 0.66 | 0.631 | 0.822 | 0.657 | 0.498 |
| CAL-12T | 0.771 | 1.09 | 0.703 | 0.455 | 0.343 | 1.27 | 1.59 | 0.94 | 0.632 | 0.232 | 0.445 | 0.393 | 0.291 | 0.104 | 0.123 | 1.04 | 1.12 | 0.979 | 0.824 | 0.284 |
| COR-L23 | 1.01 | 1.08 | 0.879 | 0.835 | 0.318 | 1.16 | 1.13 | 1.13 | 0.968 | 0.485 |  | 0.621 | 0.598 | 0.606 | 0.257 | 1.09 | 1.03 | 0.946 | 0.966 | 0.837 |
| COR-L 105 | 0.989 | 1.07 | 0.754 | 0.298 | 0.241 | 1.01 | 0.748 | 0.452 | 0.226 | 0.273 | 0.862 | 0.669 | 0.53 | 0.35 | 0.203 | 0.995 | 1.28 | 0.54 | 0.324 | 0.284 |
| Calu-6 | 1.03 | 1.08 | 1.02 | 0.899 | 0.824 | 0.833 | 0.899 | 0.975 | 0.734 | 0.523 |  |  |  |  |  | 0.929 | 0.891 | 0.736 | 0.85 | 0.513 |
